Patent US7439266B2, “Malononitrile compound and use thereof” (Sumitomo Chemical Company, Limited, priority 2002, dated 2008)
Where two headings read alike, the source gives them in different places.

Tests used:
Culex pipiens pallens = test: Test Example 6: last-instar mosquito larvae in treated water; type: in vivo; details: 24 h, read-out: rate of dead pests
Description: The formulation obtained according to Formulation Example 5 using the present invention compounds (7), (8)-(11), (14)-(16), (20), (21), (24)-(26), (28), (29), (31), (37)-(39), (44)-(47), (51), (53), (55), (57), (58), (60)-(67), (69), (70) and (71) respectively, was diluted with water so that the active ingredient concentration came to 500 ppm to prepare a pesticidal solution for test.
0.7 ml of above pesticidal solution for test was added to 100 ml of ion exchanged water (active ingredient concentration: 3.5 ppm). Twenty last-instar larvae of Culex pipiens pallens were set free in the solution. After one day, the number of surviving Culex pipiens pallens was examined and the rate of dead pests was calculated.

Blattella germanica = test: Test Example 5: filter paper with sucrose bait, male German cockroach imagoes; type: in vivo; details: 144 h, 0.7 ml on filter paper with 30 mg sucrose, two male imagoes, after 6 days, read-out: rate of dead pests
Description: The formulation obtained according to Formulation Example 5 using the present invention compounds (1), (25), (28), (36), (39), (40), (44)-(46), (47), (57), (58), (64), (65) and (67) respectively, was diluted with water so that the active ingredient concentration came to 500 ppm to prepare a pesticidal solution for test.
(§1) On the bottom of a polyethylene cup having a diameter of 5.5 cm, a filter paper having the same diameter was laid, and 0.7 ml of the above pesticidal solution for test was added dropwise on the filter paper, followed by putting 30 mg of sucrose on it uniformly as a bait. Two male Blattalla germanica imagoes were set free in the polyethylene cup and covered it with a lid. After 6 days, the number of surviving Blattella germanica was examined and the rate of dead pests was calculated.

Aphis gossypii = test: Test Example 3: spray on cucumber plant, Aphis gossypii; type: in vivo; details: 500 ppm, sprayed 20 ml/cup on cucumber plant with about twenty Aphis gossypii; sixth day after the treatment
Description: The formulation obtained according to Formulation Example 5 using the present invention compounds (23) was diluted with water so that the active ingredient concentration came to 500 ppm to prepare a pesticidal solution for test.
At the same time, molding Aisai 1 (available from KATAOKA TIKKARIN Co., Ltd.) was put into a 90 ml polyethylene cup, and seeded with cucumber. The plant was grown until the first true leaf was developed, on which about twenty Aphis gossypii were allowed to be parasitic. On the next day, the above pesticidal solution for test was sprayed at a ratio of 20 ml/cup on the cucumber plant. On the sixth day after the application, the number of Aphis gossypii was examined.

Musca domestics = test: Test Example 4: filter paper with sucrose bait, female housefly imagoes; type: in vivo, Musca domestica; details: 0.7 ml on filter paper with 30 mg sucrose, ten female imagoes, after 24 hours, read-out: rate of dead pests
Description: The formulation obtained according to Formulation Example 5 using the present invention compounds (1), (7), (13)-(17), (20), (28), (32), (36), (37), (39), (44)-(46), (53), (55), (57)-(62), (64)-(70) and (71) respectively, was diluted with water so that the active ingredient concentration came to 500 ppm to prepare a pesticidal solution for test.
as §1, with “Ten female Musca domestics” for “Two male Blattalla germanica”, “24 hours,” for “6 days,”, “Musca domestics” for “Blattella germanica”

Nilaparvata lugens = test: Test Example 1: spray on rice plants, Nilaparvata lugens larvae, 2000 ppm; type: in vivo; details: sprayed 20 ml/cup on rice plants, thirty first-instar larvae released, sixth day after release, 25° C.
Description: The formulation obtained according to Formulation Example 5 using the present invention compound (74) and the reference compound (1) respectively, was diluted with water so that the active ingredient concentration came to 2000 ppm to prepare a pesticidal solution for test. At the same time, 50 grams of molding Bonsoru 2 (available from Sumitomo Chemical Co., Ltd.) was put into a polyethylene cup, and 10 to 15 seeds of rice were planted in the polyethylene cup. The rice plants were grown until the second foliage leaves developed and then cut into the same height of 5 cm. The pesticidal solution for test prepared above was sprayed at the rate of 20 ml/cup to these rice plants. After the pesticidal solution sprayed onto the rice plants were dried, they were put into a plastic cup for escape prevention of test pests, and thirty first-instar larvae of Nilaparvata lugens were set free on the rice plants, followed by covering the plastic cup with a lid. Then the plastic cup was left in a greenhouse (25° C.). On the sixth day after the release of larvae of Nilaparvata lugens, the number of parasitic Nilaparvata lugens on the rice plants was examined.

[1] = 0.7 ml of 500 ppm solution in 100 ml water (active ingredient concentration: 3.5 ppm), twenty last-instar larvae, after one day

Compound	pest or weed control at 3.5 µg/mL (Culex pipiens pallens; [1])	pest or weed control at 500 ppm (Blattella germanica)	pest or weed control at 500 ppm (Musca domestics)	other results
CC(C)(C)OC(=O)CC(C#N)(C#N)CCCC(F)(F)F [present invention compound (51), 2-(tert-butoxycarbonylmethyl)-2-(4,4,4-trifluorobutyl)malononitrile]	100%			
CC(C)(C)SC(=O)CC(C#N)(C#N)CCC(F)(F)F [present invention compound (47), 2-[(tert-butylthio)carbonylmethyl]-2-(3,3,3-trifluoropropyl)malononitrile]		100%		
CC(C)(C)OC(=O)CC(C#N)(C#N)CCF [present invention compound (23), 2-(tert-butoxycarbonylmethyl)-2-(2-fluoroethyl)malononitrile]				number of parasitic Aphis gossypii (Aphis gossypii): ≤ 3
CCCC(C#N)(C#N)CC(=O)OC(C)(C)C [present invention compound (37), 2-(tert-butoxycarbonylmethyl)-2-propylmalononitrile]			≥ 90%	
N#CC(C#N)(CCC(F)(F)F)CC(=O)OC1CCCCC1 [present invention compound (20), 2-(cyclohexyloxycarbonylmethyl)-2-(3,3,3-trifluoropropyl)malononitrile]	100%		≥ 90%	
CC(CCl)CC(C#N)(C#N)CC(=O)OC(C)(C)C (centres unmarked) [present invention compound (25), 2-(tert-butoxycarbonylmethyl)-2-(3-chloro-2-methylpropyl)malononitrile]		100%		
CCOC(=O)C(C)C(C#N)(C#N)CCC(F)(F)F (centres unmarked) [present invention compound (7), 2-[1-(ethoxycarbonyl)ethyl]-2-(3,3,3-trifluoropropyl)malononitrile]	100%		≥ 90%	
CC(C)CCC(C#N)(C#N)CC(=O)OC(C)(C)C [present invention compound (31), 2-(tert-butoxycarbonylmethyl)-2-(3-methylbutyl)malononitrile]	100%			
CCCCCC(C#N)(C#N)CC(=O)OC(C)(C)C [present invention compound (29), 2-(tert-butoxycarbonylmethyl)-2-pentylmalononitrile]	100%			
CC(C)(C)COC(=O)CC(C#N)(C#N)CCC(F)(F)F [present invention compound (53), 2-[(2,2-dimethylpropoxy)carbonylmethyl]-2-(3,3,3-trifluoropropyl)malononitrile]	100%		≥ 90%	
CCC(C)C(C#N)(C#N)CC(=O)OC(C)(C)C (centres unmarked) [present invention compound (32), 2-(tert-butoxycarbonylmethyl)-2-(1-methylpropyl)malononitrile]			≥ 90%	
C#CC(C)(C)OC(=O)C(C)C(C#N)(C#N)CCC(F)(F)F (centres unmarked) [present invention compound (64), 2-(1-[(1,1-dimethyl-2-propynyl)oxycarbonyl]ethyl)-2-(3,3,3-trifluoropropyl)malononitrile]		100%		
CC(CCl)OC(=O)CC(C#N)(C#N)CCC(F)(F)F (centres unmarked) [present invention compound (55), 2-[(2-chloro-1-methylethoxy)carbonylmethyl]-2-(3,3,3-trifluoropropyl)malononitrile]	100%		≥ 90%	
CC(C)(C)OC(=O)CC(C#N)(C#N)CCC(F)=C(F)F [present invention compound (40), 2-(tert-butoxycarbonylmethyl)-2-(3,4,4-trifluoro-3-butenyl)malononitrile]		100%		
CCOC(=O)CCC(C#N)C#N [reference compound (1), 2-[2-(ethoxycarbonyl)ethyl]malononitrile, reference compound]				number of parasitic Nilaparvata lugens (Nilaparvata lugens): ≥ 20
CC(C)CC(C)OC(=O)C(C)C(C#N)(C#N)CCC(F)(F)F (centres unmarked) [present invention compound (69), 2-(1-[(1,3-dimethylbutoxy)carbonyl]ethyl)-2-(3,3,3-trifluoropropyl)malononitrile]	100%			
C#CC(C)(CC)OC(=O)CC(C#N)(C#N)CCC(F)(F)F (centres unmarked) [present invention compound (58), 2-((1-ethyl-1-methyl-2-propynyloxycarbonyl)methyl)-2-(3,3,3-trifluoropropyl)malononitrile]	100%	100%		
CC(C(=O)OCC(C)(C)C)C(C#N)(C#N)CCC(F)(F)F (centres unmarked) [present invention compound (70), 2-(1-[(2,2dimethylpropoxy)carbonyl]ethyl)-2-(3,3,3-trifluoropropyl)malononitrile]	100%			
C=CC(C)(C)OC(=O)C(C)C(C#N)(C#N)CCC(F)(F)F (centres unmarked) [present invention compound (67), 2-(1-[(1,1-dimethyl-2-propenyl)oxycarbonyl]ethyl)-2-(3,3,3-trifluoropropyl)malononitrile]		100%		
CCOC(=O)CC(C)(C#N)C#N [present invention compound (74), 2-(ethoxycarbonylmethyl)-2-methylmalononitrile]				number of parasitic Nilaparvata lugens (Nilaparvata lugens): ≤ 3
CCCCC(C#N)(C#N)CC(=O)OC(C)(C)C [present invention compound (28), 2-(tert-butoxycarbonylmethyl)-2-butylmalononitrile]	100%	100%	≥ 90%	
CC(C)(C)OC(=O)CC(C#N)(C#N)CCC#N [present invention compound (21), 2-(tert-butoxycarbonylmethyl)-2-(2-cyanoethyl)malononitrile]				pest or weed control at 3.5 µg/mL (Culex pipiens pallens): 100%
C#CC(C)(CC)OC(=O)C(C)C(C#N)(C#N)CCC(F)(F)F (centres unmarked) [present invention compound (65), 2-(1-[(1-ethyl-1-methyl-2-propynyl)oxycarbonyl]ethyl)-2-(3,3,3-trifluoropropyl)malononitrile]		100%		
C#CC(C)(C)OC(=O)CC(C#N)(C#N)CCC(F)(F)F [present invention compound (57), 2-[(1,1-dimethyl-2-propynyl)oxycarbonylmethyl]-2-(3,3,3-trifluoropropyl)malononitrile]	100%	100%		
CC=CCC(C#N)(C#N)CC(=O)OC(C)(C)C [present invention compound (36), 2-(tert-butoxycarbonylmethyl)-2-(2-butenyl)malononitrile]		100%	≥ 90%	
COC(=O)C(C)C(C#N)(C#N)CCC(F)(F)F (centres unmarked) [present invention compound (71), 2-[1-(methoxycarbonyl)ethyl]-2-(3,3,3-trifluoropropyl)malononitrile]	100%		≥ 90%	
CCCCC(C#N)(C#N)C(C)C(=O)OC(C)(C)C (centres unmarked) [present invention compound (39), 2-[1-(tert-butoxycarbonyl)ethyl]-2-butylmalononitrile]		100%	≥ 90%	
